Results published in US20250092017A1, “2-PIPERIDYL OR 2-PYRAZOLYL SUBSTITUTED PYRIMIDINE COMPOUND SERVING AS EGFR INHIBITOR” (SUZHOU PUHE BIOPHARMA CO., LTD., priority 2022, published 2025).

Legend:
[1] = target: EGFR (wild-type) (Homo sapiens, UniProt P00533); assay: MSA (Mobility Shift Assay) kinase activity, EGFR wild type; type: biochemical; conditions: read-out: EGFR wt/ IC50/nM
Description: (§1) The MSA (Mobility Shift Assay) method was used to detect the effects of small molecule inhibitors on the kinase activity of EGFR wild type and its mutants (EGFR^wt, EGFR-L858R, EGFR-L858R-T790M-C797S, EGFR-L858R-C797S).
(§2) 10 μL of kinase solution at 2.5 times the final concentration was added to the compound wells and positive control Max wells; 10 μL of 1x kinase buffer was added to the negative control Min wells. The mixture was centrifuged at 1000 rpm for 30 seconds, and the reaction plate was shaken to mix the solution well and then incubated at room temperature for 10 minutes. A mixed solution of ATP and kinase substrate at 5/3 times the final concentration was prepared in 1x kinase buffer. 15 μL of a mixed solution of ATP and substrate at 5/3 times the final concentration was added to initiate the reaction. The 384-well plate was centrifuged at 1000 rpm for 30 seconds, and shaken to mix the solution well and then incubated at room temperature for the corresponding time. 30 μL of stop detection solution was added to stop the kinase reaction, and the mixture was centrifuged at 1000 rpm for 30 seconds, and then to mixed well by shaking. The conversion rate was read using Caliper EZ Reader.
(§3) wherein: Conversion %_sample is the conversion rate reading of the sample; Conversion %_min is the mean of the negative control wells, representing the conversion rate reading of the wells without enzyme activity; Conversion %_max is the mean of the positive control wells, representing the conversion rate reading of the wells without compound inhibition.
(§4) The log (inhibitor) vs. response —Variable slope of the analysis software GraphPad Prism 5 was used to fit the dose-effect curve, where the log value of the concentration was used as the X-axis and the percentage inhibition rate was used as the Y-axis, to obtain the IC50 value of each compound on the enzyme activity.
(§5) The calculation formula is Y=Bottom+(Top-Bottom)/(1+10^((Log IC50−X)*Hill Slope))

[2] = target: EGFR (L858R) (Homo sapiens, UniProt P00533, L858R); assay: MSA (Mobility Shift Assay) kinase activity, EGFR-L858R; type: biochemical
Description: as §1, §2, §3, §4, §5

[3] = target: EGFR (L858R/C797S) (Homo sapiens, UniProt P00533, C797S/L858R); assay: MSA (Mobility Shift Assay) kinase activity, EGFR-L858R-C797S; type: biochemical
Description: as §1, §2, §3, §4, §5

[4] = target: EGFR (L858R/T790M/C797S) (Homo sapiens, UniProt P00533, C797S/L858R/T790M); assay: MSA (Mobility Shift Assay) kinase activity, EGFR-L858R-T790M-C797S; type: biochemical
Description: as §1, §2, §3, §4, §5

[5] = tested on: Ba/F3-FL-EGFR-del19-C797S; assay: CellTiter-Glo proliferation, Ba/F3-FL-EGFR-del19-C797S; type: cell-based; conditions: 72 h, proliferation, 72 hours, CellTiter-Glo; read-out: Ba/F3-FL-EGFR-del19-C797S IC50/nM
Description: (§6) Promega CellTiter-Glo reagent was used to detect the effects of small molecule inhibitors on the proliferation of five Ba/F3 cell lines (Ba/F3-FL-EGFR, Ba/F3-FL-EGFR-L858R, Ba/F3-FL-EGFR-L858R-T790M-C797S, Ba/F3-TEL-EGFR-L858R-C797S and Ba/F3-FL-EGFR-del19-C797S).
(§7) The cell lines were cultured in an incubator at 37° C. and 5% CO2. Cells were passaged regularly and cells in the logarithmic phase were used for plating. 95 μL of cell suspension was added to each well of the cell plate, and culture medium without cells (containing 0.1% DMSO) was added to the Min control wells. Substance addition for compound detection cell plate: 5 μL of 20× compound working solution was added to the cell culture plate as shown in the table below. 50 μL of DMSO-cell culture medium mixture was added to the Max control, with the final DMSO concentration of 0.1%. 5 μL of DMSO-cell culture medium mixture was added to the Max control. The final DMSO concentration was 0.1%.
(§8) The compounds to be tested were added as per the table below
(§9) Cell viability was detected by CellTiter-Glo luminescence assay. Data analysis:
(§10) The cell proliferation inhibition rate (Inhibition Rate) data was processed using the following formula: […]
(§11) wherein: RLUDrug represents the relative luminescence unit of the cells with the addition of drug, RLUMin represents the luminescence unit of the culture medium, and RLUMax represents the relative luminescence unit of the cells with the addition of DMSO.
(§12) The inhibition rates corresponding to different concentrations of compounds were calculated in EXCEL, and then the inhibition rate curve was plotted using GraphPad Prism software and related parameters including the maximum and minimum inhibition rates of cells and IC50 values were calculated.

[6] = target: Ba/F3-FL-EGFR-L858R-T790M-C797S (Homo sapiens, UniProt P00533, T790M/C797S/L858R, cells depend on it); assay: CellTiter-Glo proliferation, Ba/F3-FL-EGFR-L858R-T790M-C797S; type: cell-based; conditions: 72 hours, read-out: Ba/F3-FL-EGFR-L858R-T790M-C797S IC50/nM
Description: as §6, §7, §8, §9, §10, §11, §12

[7] = target: T1, Ba/F3-TEL-EGFR-L858R-C797S (Homo sapiens, UniProt P00533, C797S/L858R, cells depend on it); assay: CellTiter-Glo proliferation, Ba/F3-TEL-EGFR-L858R-C797S; type: cell-based; conditions: 72 hours, read-out: Ba/F3-TEL-EGFR-L858R-C797S IC50/nM
T1 construct: fused on or other part: N-terminal TEL (ETV6) oligomerising part fused to the EGFR intracellular/kinase part; P41212 (Transcription factor ETV6)
Description: as §6, §7, §8, §9, §10, §11, §12

[8] = target: T2, Ba/F3-FL-EGFR (Homo sapiens, UniProt P00533); assay: CellTiter-Glo proliferation, Ba/F3-FL-EGFR; type: cell-based; conditions: 72 hours, read-out: Ba/F3-FL-EGFR IC50/nM
T2 construct: FL read as full length
Description: as §6, §7, §8, §9, §10, §11, §12

[9] = target: Ba/F3-FL-EGFR-L858R (Homo sapiens, UniProt P00533, L858R, cells depend on it); assay: CellTiter-Glo proliferation, Ba/F3-FL-EGFR-L858R; type: cell-based; conditions: 72 hours, read-out: Ba/F3-FL-EGFR-L858R IC50/nM
Description: as §6, §7, §8, §9, §10, §11, §12

EGFR (wild-type), sequence (P00533 25-1210): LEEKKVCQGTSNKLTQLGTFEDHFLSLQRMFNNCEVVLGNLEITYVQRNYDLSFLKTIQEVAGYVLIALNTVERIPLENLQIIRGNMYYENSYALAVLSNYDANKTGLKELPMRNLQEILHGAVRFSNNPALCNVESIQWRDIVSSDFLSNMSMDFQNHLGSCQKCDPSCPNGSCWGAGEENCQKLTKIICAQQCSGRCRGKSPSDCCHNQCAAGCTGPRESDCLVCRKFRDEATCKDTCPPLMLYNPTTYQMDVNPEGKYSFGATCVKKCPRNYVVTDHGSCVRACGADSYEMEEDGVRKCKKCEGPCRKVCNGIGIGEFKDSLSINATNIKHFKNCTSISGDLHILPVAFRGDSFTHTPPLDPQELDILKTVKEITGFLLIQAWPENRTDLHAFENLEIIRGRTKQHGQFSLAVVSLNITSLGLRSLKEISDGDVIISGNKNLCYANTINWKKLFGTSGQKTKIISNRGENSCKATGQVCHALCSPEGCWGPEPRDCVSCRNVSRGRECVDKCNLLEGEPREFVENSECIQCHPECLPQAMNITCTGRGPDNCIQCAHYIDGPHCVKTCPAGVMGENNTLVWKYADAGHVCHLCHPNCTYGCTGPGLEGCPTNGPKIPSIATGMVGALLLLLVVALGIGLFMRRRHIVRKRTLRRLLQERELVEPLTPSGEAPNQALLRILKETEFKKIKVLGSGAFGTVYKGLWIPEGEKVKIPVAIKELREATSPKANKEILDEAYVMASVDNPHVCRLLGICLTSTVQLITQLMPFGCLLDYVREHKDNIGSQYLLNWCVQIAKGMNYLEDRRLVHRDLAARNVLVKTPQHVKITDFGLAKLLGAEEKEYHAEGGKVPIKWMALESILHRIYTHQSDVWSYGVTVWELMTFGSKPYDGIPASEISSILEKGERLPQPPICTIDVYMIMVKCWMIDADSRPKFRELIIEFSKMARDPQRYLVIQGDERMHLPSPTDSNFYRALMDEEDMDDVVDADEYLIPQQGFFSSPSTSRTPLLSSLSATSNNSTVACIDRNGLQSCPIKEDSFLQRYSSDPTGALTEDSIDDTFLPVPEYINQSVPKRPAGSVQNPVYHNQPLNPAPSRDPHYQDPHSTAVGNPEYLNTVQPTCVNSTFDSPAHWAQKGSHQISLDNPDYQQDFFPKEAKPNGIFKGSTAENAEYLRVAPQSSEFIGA
T2 sequence (P00533 whole entry, change not shown): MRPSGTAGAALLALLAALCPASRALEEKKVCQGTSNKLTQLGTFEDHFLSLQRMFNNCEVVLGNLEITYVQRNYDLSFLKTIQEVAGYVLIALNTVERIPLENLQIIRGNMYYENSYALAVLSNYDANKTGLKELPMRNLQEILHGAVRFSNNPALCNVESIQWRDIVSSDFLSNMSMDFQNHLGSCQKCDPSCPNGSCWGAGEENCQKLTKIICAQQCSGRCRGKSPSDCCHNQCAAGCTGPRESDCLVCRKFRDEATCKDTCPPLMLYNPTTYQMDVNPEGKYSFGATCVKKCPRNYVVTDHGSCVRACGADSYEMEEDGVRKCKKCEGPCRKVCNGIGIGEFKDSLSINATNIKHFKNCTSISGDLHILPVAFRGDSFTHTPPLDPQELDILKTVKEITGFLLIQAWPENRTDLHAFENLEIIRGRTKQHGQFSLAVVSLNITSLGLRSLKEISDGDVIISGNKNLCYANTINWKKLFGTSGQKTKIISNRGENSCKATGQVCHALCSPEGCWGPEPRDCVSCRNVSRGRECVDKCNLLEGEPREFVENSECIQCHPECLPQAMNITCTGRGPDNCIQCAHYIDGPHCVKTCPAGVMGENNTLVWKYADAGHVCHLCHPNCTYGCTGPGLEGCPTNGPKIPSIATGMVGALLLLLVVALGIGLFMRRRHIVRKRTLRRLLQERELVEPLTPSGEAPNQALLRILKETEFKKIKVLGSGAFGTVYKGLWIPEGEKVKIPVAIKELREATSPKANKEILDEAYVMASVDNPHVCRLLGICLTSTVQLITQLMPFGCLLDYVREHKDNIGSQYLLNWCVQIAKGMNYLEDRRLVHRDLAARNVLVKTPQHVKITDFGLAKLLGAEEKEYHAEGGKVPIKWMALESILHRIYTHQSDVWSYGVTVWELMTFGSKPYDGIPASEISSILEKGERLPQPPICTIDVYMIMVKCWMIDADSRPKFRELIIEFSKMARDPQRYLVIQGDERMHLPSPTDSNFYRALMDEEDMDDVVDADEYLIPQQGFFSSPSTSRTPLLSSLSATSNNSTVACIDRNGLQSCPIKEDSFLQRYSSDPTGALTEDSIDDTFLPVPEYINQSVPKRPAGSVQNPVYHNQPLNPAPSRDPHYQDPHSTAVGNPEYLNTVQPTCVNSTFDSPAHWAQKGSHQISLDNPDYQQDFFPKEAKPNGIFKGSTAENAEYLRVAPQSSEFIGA
EGFR (L858R/T790M/C797S), sequence (P00533 25-1210 T790M/C797S/L858R): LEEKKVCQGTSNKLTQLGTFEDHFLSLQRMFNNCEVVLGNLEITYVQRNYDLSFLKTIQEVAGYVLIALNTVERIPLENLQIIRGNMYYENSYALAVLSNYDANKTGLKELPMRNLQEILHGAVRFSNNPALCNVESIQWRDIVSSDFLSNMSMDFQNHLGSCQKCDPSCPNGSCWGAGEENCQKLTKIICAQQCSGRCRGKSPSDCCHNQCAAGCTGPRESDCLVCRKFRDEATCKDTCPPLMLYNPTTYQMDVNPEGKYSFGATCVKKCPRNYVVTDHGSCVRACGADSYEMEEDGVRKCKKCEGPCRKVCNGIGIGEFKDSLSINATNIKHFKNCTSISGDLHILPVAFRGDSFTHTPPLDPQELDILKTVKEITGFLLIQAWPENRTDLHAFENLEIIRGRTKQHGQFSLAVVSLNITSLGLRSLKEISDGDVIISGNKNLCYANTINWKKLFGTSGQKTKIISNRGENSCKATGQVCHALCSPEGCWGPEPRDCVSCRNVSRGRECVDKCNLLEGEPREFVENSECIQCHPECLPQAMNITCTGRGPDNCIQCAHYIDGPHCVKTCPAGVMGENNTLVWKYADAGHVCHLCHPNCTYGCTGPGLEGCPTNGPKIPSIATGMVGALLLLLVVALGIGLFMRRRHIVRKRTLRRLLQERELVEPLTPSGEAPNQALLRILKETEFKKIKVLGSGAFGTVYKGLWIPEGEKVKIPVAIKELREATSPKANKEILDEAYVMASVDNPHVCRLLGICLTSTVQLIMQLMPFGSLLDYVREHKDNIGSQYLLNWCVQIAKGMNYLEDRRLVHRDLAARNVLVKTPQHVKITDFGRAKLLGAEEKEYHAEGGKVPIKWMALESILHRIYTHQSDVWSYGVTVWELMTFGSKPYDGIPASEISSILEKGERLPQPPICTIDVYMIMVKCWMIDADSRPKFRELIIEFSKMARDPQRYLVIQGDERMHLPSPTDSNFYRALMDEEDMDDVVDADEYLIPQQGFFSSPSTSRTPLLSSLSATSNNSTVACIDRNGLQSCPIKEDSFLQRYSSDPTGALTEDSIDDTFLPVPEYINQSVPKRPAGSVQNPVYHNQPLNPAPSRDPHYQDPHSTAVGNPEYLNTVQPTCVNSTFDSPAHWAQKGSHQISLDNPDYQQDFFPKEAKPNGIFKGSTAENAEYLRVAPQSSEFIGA
Ba/F3-FL-EGFR-L858R, sequence (P00533 whole entry L858R): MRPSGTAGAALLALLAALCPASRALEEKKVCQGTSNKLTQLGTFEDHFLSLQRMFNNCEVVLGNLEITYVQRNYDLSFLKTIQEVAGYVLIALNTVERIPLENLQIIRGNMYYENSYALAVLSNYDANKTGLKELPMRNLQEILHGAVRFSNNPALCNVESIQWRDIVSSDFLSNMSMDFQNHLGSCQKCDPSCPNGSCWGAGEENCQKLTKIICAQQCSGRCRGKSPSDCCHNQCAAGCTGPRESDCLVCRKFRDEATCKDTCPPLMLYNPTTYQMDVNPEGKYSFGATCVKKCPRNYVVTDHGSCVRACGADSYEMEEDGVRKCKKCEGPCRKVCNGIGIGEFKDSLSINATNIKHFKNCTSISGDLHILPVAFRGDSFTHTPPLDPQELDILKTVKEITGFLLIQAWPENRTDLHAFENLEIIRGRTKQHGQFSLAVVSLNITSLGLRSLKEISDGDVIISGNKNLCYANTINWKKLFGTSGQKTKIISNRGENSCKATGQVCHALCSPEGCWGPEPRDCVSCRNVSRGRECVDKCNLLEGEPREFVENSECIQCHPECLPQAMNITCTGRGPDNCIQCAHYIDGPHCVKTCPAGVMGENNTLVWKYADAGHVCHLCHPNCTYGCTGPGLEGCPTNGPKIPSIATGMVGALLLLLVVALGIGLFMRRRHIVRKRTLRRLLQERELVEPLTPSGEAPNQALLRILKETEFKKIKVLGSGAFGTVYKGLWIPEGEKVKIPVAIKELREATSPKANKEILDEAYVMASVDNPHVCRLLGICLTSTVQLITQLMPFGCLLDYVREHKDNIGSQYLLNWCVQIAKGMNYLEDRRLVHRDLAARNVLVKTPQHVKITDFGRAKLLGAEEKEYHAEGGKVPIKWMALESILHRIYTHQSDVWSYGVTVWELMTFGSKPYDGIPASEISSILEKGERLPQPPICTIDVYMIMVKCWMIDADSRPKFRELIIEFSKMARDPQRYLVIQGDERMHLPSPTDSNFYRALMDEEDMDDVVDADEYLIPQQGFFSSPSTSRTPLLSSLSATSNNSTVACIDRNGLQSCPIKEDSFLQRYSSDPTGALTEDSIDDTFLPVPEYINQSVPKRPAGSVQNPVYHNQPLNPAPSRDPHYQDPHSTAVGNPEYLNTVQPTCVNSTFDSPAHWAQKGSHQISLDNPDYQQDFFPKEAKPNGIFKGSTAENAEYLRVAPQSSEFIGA

Row | SMILES | IC50 [1] | IC50 [2] | IC50 [3] | IC50 [4] | IC50 [5] | GI50 [6] | GI50 [7] | GI50 [8] | GI50 [9]
1 | CC(C)c1ccc(N2CC(CS(C)(=O)=O)C2(C)C)c2cnc(Nc3ccnc(N4CCC(O)C(F)C4)n3)cc12 (centres unmarked) [Compound P8] | > 100 nM | 67.8 nM | 83.3 nM | 0.97 nM |  |  |  |  | 
2 | CC(C)c1ccc(N2CC(c3ccc[nH]c3=O)C2)c2cnc(Nc3ccnc(N4CCC(O)C(F)C4)n3)cc12 (centres unmarked) [Compound P22] | > 100 nM | > 100 nM | > 100 nM | 3.2 nM |  |  |  |  | 
3 | CC(C)c1ccc(N2CC(NC(=O)N(C)C)C2)c2cnc(Nc3ccnc(N4CCC(O)C(F)C4)n3)cc12 (centres unmarked) [Compound P10] | > 100 nM | 43.2 nM | 41 nM | 0.56 nM |  |  |  |  | 
4 | CC(C)c1ccc(N2CC3(CC(S(C)(=O)=O)C3)C2)c2cnc(Nc3ccnc(N4CCC(O)CC4)n3)cc12 [Compound P4] | > 100 nM | 43.3 nM | > 100 nM | 4.6 nM |  |  |  |  | 
5 | CC(C)n1c(=O)cc(N2CC(CS(C)(=O)=O)C2)c2cnc(Nc3ccnc(-c4cnn(S(=O)(=O)C5CC5)c4)n3)cc21 [Compound H5] | 10.2 nM | 4.6 nM | 1.9 nM | 0.43 nM |  |  |  |  | 
6 | CC(C)c1ccc(N2CC(CS(C)(=O)=O)C2)c2cnc(Nc3ccnc(-c4cnn(S(=O)(=O)C5CCCCC5)c4)n3)cc12 [Compound H9] | > 100 nM |  | 12 nM | 6.3 nM |  |  |  |  | 
7 | CC(C)c1ccc(N2CC(NS(C)(=O)=O)C2)c2cnc(Nc3ccnc(N4CCC(O)CC4)c3)nc12 [Compound P6] | > 100 nM | 45.2 nM | 89.8 nM | 6.1 nM |  |  |  |  | 
8 | CC(C)c1ccc(N2CC(c3cscn3)C2)c2cnc(Nc3ccnc(N4CCC(O)C(F)C4)n3)cc12 (centres unmarked) [Compound P18] | > 100 nM |  | > 100 nM | 9.9 nM |  |  |  |  | 
9 | CC(C)c1ccc(N2CC(CS(C)(=O)=O)C2)c2cnc(Nc3ccnc(-c4cnn(S(=O)(=O)C(F)(F)F)c4)n3)cc12 [Compound H8] | > 100 nM |  | 6.4 nM | 3.5 nM |  |  |  |  | 
10 | COC1CCN(c2nccc(Nc3cc4c(cn3)c(N3CC(CS(C)(=O)=O)C3)cc(=O)n4C(C)C)n2)CC1F (centres unmarked) [Compound P24] | 41.2 nM |  | 10.4 nM | 0.13 nM | 283 nM | 57 nM | 63 nM | 3440 nM | 128 nM
11 | COC1CCN(c2nccc(Nc3cc4c(C(C)C)ccc(N5CC(N(C)S(C)(=O)=O)C5)c4cn3)n2)CC1F (centres unmarked) [Compound P36] |  |  |  |  | 159 nM | 14 nM | 8.3 nM | 1090 nM | 33 nM
12 | CCCS(=O)(=O)N[C@H]1CN(c2ccc(C(C)C)c3cc(Nc4ccnc(N5CCC(OC)C(F)C5)n4)ncc23)[C@@H]1C (some centres unmarked) [Compound P32] |  |  |  |  | 123 nM | 8.9 nM | 16 nM | 565 nM | 22 nM
13 | CC(C)c1ccc(N2C[C@H](CS(C)(=O)=O)[C@H]2C)c2cnc(Nc3ccnc(-c4cnn(S(=O)(=O)N(C)C)c4)n3)cc12 [Compound H28] |  |  |  |  | 48 nM | 68 nM | 23 nM | 595 nM | 50 nM
14 | CC(C)c1cc(C#N)c(N2CC(CS(C)(=O)=O)C2)c2cnc(Nc3ccnc(N4CCC(O)C(F)C4)n3)cc12 (centres unmarked) [Compound P16] | > 100 nM |  | 24.1 nM | 0.28 nM |  |  |  |  | 
15 | COCCS(=O)(=O)n1cc(-c2nccc(Nc3cc4c(C(C)C)ccc(N5C[C@H](CS(C)(=O)=O)[C@H]5C)c4cn3)n2)cn1 [Compound H21] |  |  |  |  | 4.3 nM | 4.4 nM | 1.8 nM | 76 nM | 2.9 nM
16 | CCN(C1CN(c2ccc(C(C)C)c3cc(Nc4ccnc(N5CCC(OC)C(F)C5)n4)ncc23)C1)S(C)(=O)=O (centres unmarked) [Compound P31] |  |  |  |  | 295 nM | 18 nM | 19 nM | 1460 nM | 86 nM
17 | CCCS(=O)(=O)NC1CN(c2ccc(C(C)C)c3cc(Nc4ccnc(N5CCC(O)C(F)C5)n4)ncc23)C1 (centres unmarked) [Compound P48] |  |  |  |  | 144 nM | 31 nM | 29 nM | 1170 nM | 76 nM
